Data set [1] addresses T1, Aromatase (Homo sapiens, UniProt P11511).
T1 sequence (P11511 whole entry): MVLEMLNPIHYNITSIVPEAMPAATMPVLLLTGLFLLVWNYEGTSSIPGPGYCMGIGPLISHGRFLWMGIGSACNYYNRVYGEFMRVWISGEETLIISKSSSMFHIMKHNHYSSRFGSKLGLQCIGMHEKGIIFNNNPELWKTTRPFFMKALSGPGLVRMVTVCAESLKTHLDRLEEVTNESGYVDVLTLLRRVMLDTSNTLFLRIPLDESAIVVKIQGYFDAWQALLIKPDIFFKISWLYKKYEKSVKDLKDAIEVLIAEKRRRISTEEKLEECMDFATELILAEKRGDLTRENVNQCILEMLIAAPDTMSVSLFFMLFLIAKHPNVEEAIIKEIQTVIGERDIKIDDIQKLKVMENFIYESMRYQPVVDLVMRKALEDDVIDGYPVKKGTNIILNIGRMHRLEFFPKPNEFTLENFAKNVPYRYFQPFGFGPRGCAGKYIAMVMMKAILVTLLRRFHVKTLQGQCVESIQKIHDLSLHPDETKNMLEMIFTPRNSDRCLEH
Nature of the data set: Inhibition of aromatase (unknown origin) using O-benzyl fluorescein benzyl ester as substrate in presence of NADPH-generating system by fluorescence assay.

The test system of the next data set is Vero. Description: Cytotoxicity against GFP-expressing African green monkey Vero cells after 4 days by fluorescence assay. In kind it is cell-based. To be noted: Chlorocebus sabaeus, 96 h.
The test system of data set [2] is aromatase. Nature of the data set: Selectivity index, ratio of IC50 for GFP-expressing African green monkey Vero cells to IC50 for aromatase (unknown origin). It counts as toxicity. To be noted: read-out: Ratio IC50.

A value given as a limit tells only on which side of the number the result lay.

In general, IC50 refers to the concentration needed to halve the response being measured. Consider `O=S(=O)(NCCc1c(C(c2ccc(F)cc2)c2[nH]c3ccccc3c2CCNS(=O)(=O)c2ccc(Cl)cc2)[nH]c2ccccc12)c1ccc(Cl)cc1`, for which the results for the IC50 at Aromatase [1] and in the data set with Vero were 5.4 µM and over 50 µg/mL, respectively. Further, the selectivity ratio with aromatase [2] is over 11.9.
For `O=S(=O)(NCCc1c(C(c2ccc(C(F)(F)F)cc2)c2[nH]c3ccccc3c2CCNS(=O)(=O)c2ccc(Br)cc2)[nH]c2ccccc12)c1ccc(Br)cc1`, the IC50 at Aromatase [1] was 3.8 µM; in the data set with Vero, over 50 µg/mL. The selectivity ratio with aromatase [2] was over 14.4.
Taken in the same sequence, the figures for `O=[N+]([O-])c1ccc(C(c2[nH]c3ccccc3c2CCNS(=O)(=O)c2ccc(C(F)(F)F)cc2)c2[nH]c3ccccc3c2CCNS(=O)(=O)c2ccc(C(F)(F)F)cc2)cc1` were 4 µM, over 50 µg/mL and over 14.4.
With `O=S(=O)(NCCc1c(C(c2ccc(Br)cc2)c2[nH]c3ccccc3c2CCNS(=O)(=O)c2ccc(C(F)(F)F)cc2)[nH]c2ccccc12)c1ccc(C(F)(F)F)cc1`, the IC50 was found to be 3.4 µM at Aromatase [1] and 24.8 µM in the data set on Vero. For the same molecule, the selectivity ratio with aromatase [2] came to 7.3.
Consider `COc1ccc(S(=O)(=O)NCCc2c(C(c3ccccc3O)c3[nH]c4ccccc4c3CCNS(=O)(=O)c3ccc(OC)cc3)[nH]c3ccccc23)cc1`, for which the IC50 on Aromatase [1] is 0.8 µM; in the data set with Vero, over 50 µg/mL. Moreover, the selectivity ratio in the data set with aromatase [2] was over 81.7.
For the molecule `Cc1ccc(S(=O)(=O)NCCc2c(C(c3ccccc3O)c3[nH]c4ccccc4c3CCNS(=O)(=O)c3ccc(C)cc3)[nH]c3ccccc23)cc1`, the figures for the IC50 at Aromatase [1] and with Vero were 4.1 µM and 14.8 µM, respectively. Moreover, the selectivity ratio in the data set with aromatase [2] turned out to be 3.6.
On to `O=[N+]([O-])c1cccc(S(=O)(=O)NCCc2c(C(c3ccc(O)cc3)c3[nH]c4ccccc4c3CCNS(=O)(=O)c3cccc([N+](=O)[O-])c3)[nH]c3ccccc23)c1`, for which the IC50 was 2.3 µM on Aromatase [1] and over 50 µg/mL in the data set on Vero. Moreover, the selectivity ratio in the data set with aromatase [2] was over 27.4.
In the case of `O=S(=O)(NCCc1c(C(c2ccc(C(F)(F)F)cc2)c2[nH]c3ccccc3c2CCNS(=O)(=O)c2ccc(Cl)cc2)[nH]c2ccccc12)c1ccc(Cl)cc1`, the IC50 on Aromatase [1] is 3.2 µM; with Vero, 16.2 µM. The selectivity ratio with aromatase [2] came out at 5.06.
For `O=[N+]([O-])c1ccc(C(c2[nH]c3ccccc3c2CCNS(=O)(=O)c2ccc(F)cc2)c2[nH]c3ccccc3c2CCNS(=O)(=O)c2ccc(F)cc2)cc1`, the IC50 is 3.5 µM on Aromatase [1] and over 50 µg/mL in the data set on Vero. The selectivity ratio with aromatase [2] was over 18.6.
For the molecule `COc1ccc(S(=O)(=O)NCCc2c(C(c3ccccc3)c3[nH]c4ccccc4c3CCNS(=O)(=O)c3ccc(OC)cc3)[nH]c3ccccc23)cc1`, the IC50 is 3.5 µM on Aromatase [1] and over 50 µg/mL with Vero. In addition, in the data set with aromatase [2], the selectivity ratio was over 19.1.
Regarding `O=S(=O)(NCCc1c(C(c2ccc(O)cc2)c2[nH]c3ccccc3c2CCNS(=O)(=O)c2ccc(Cl)cc2)[nH]c2ccccc12)c1ccc(Cl)cc1`, the IC50 at Aromatase [1] is 1.4 µM; in the data set on Vero, 15 µM. The selectivity ratio in the data set with aromatase [2] was 10.7.
Take `O=S(=O)(NCCc1c(C(c2ccc(F)cc2)c2[nH]c3ccccc3c2CCNS(=O)(=O)c2ccc(C(F)(F)F)cc2)[nH]c2ccccc12)c1ccc(C(F)(F)F)cc1`: the IC50 worked out at 4.4 µM on Aromatase [1] and 15.1 µM in the data set with Vero. For the same molecule, the selectivity ratio in the data set with aromatase [2] came to 3.42.
For the molecule `N#Cc1ccc(C(c2[nH]c3ccccc3c2CCNS(=O)(=O)c2ccc(Cl)cc2)c2[nH]c3ccccc3c2CCNS(=O)(=O)c2ccc(Cl)cc2)cc1`, the IC50 at Aromatase [1] is 5.5 µM; in the data set on Vero, over 50 µg/mL. In addition, the selectivity ratio in the data set on aromatase [2] is over 11.6.
As to `N#Cc1ccc(C(c2[nH]c3ccccc3c2CCNS(=O)(=O)c2ccc(F)cc2)c2[nH]c3ccccc3c2CCNS(=O)(=O)c2ccc(F)cc2)cc1`, the IC50 on Aromatase [1] was 9.8 µM; in the data set with Vero, over 50 µg/mL. Further, the selectivity ratio in the data set with aromatase [2] is over 6.8.
On to `O=S(=O)(NCCc1c(C(c2ccc(F)cc2)c2[nH]c3ccccc3c2CCNS(=O)(=O)c2ccc(Br)cc2)[nH]c2ccccc12)c1ccc(Br)cc1`, for which the IC50 on Aromatase [1] is 7.6 µM; in the data set on Vero it was over 50 µg/mL. In the data set on aromatase [2], the selectivity ratio is over 7.61.
For `O=S(=O)(NCCc1c(C(c2ccccc2O)c2[nH]c3ccccc3c2CCNS(=O)(=O)c2ccc(Cl)cc2)[nH]c2ccccc12)c1ccc(Cl)cc1`, in that order: 4.2 µM, over 50 µg/mL and over 15.4.
For `Cc1ccc(S(=O)(=O)NCCc2c(C(c3ccccc3)c3[nH]c4ccccc4c3CCNS(=O)(=O)c3ccc(C)cc3)[nH]c3ccccc23)cc1`, the IC50 was 11.9 µM on Aromatase [1] and over 50 µg/mL in the data set with Vero. Moreover, in the data set with aromatase [2], the selectivity ratio was over 5.86.
In the case of `O=S(=O)(NCCc1c(C(c2ccc(O)cc2)c2[nH]c3ccccc3c2CCNS(=O)(=O)c2ccc(C(F)(F)F)cc2)[nH]c2ccccc12)c1ccc(C(F)(F)F)cc1`, the IC50 on Aromatase [1] came out at 1.3 µM; in the data set on Vero, 13.3 µM. Further, the selectivity ratio in the data set with aromatase [2] was found to be 10.2.
Take `O=S(=O)(NCCc1c(C(c2ccc(Br)cc2)c2[nH]c3ccccc3c2CCNS(=O)(=O)c2ccc(Cl)cc2)[nH]c2ccccc12)c1ccc(Cl)cc1`: the IC50 on Aromatase [1] stood at 2.7 µM; in the data set on Vero, 44.9 µM. Besides, in the data set on aromatase [2], the selectivity ratio stood at 16.6.
For the molecule `O=[N+]([O-])c1ccc(S(=O)(=O)NCCc2c(C(c3ccccc3O)c3[nH]c4ccccc4c3CCNS(=O)(=O)c3ccc([N+](=O)[O-])cc3)[nH]c3ccccc23)cc1`, the IC50 was 2.8 µM at Aromatase [1] and over 50 µg/mL in the data set on Vero. In addition, in the data set with aromatase [2], the selectivity ratio was over 22.5.
For `O=[N+]([O-])c1ccc(S(=O)(=O)NCCc2c(C(c3ccccc3)c3[nH]c4ccccc4c3CCNS(=O)(=O)c3ccc([N+](=O)[O-])cc3)[nH]c3ccccc23)cc1`, the results for the IC50 at Aromatase [1] and in the data set with Vero were 11.2 µM and over 50 µg/mL, respectively. The selectivity ratio in the data set on aromatase [2] is over 5.73.
`COc1ccc(S(=O)(=O)NCCc2c(C(c3ccc(O)cc3)c3[nH]c4ccccc4c3CCNS(=O)(=O)c3ccc(OC)cc3)[nH]c3ccccc23)cc1`: the IC50 on Aromatase [1] was 0.7 µM; with Vero, over 50 µg/mL. The selectivity ratio in the data set on aromatase [2] was over 93.4.
For the molecule `O=S(=O)(NCCc1c(C(c2ccc(C(F)(F)F)cc2)c2[nH]c3ccccc3c2CCNS(=O)(=O)c2ccc(C(F)(F)F)cc2)[nH]c2ccccc12)c1ccc(C(F)(F)F)cc1`, the results for the IC50 on Aromatase [1] and in the data set on Vero were 2.3 µM and over 50 µg/mL, respectively. In the data set on aromatase [2], the selectivity ratio was over 24.4.
`O=[N+]([O-])c1ccc(C(c2[nH]c3ccccc3c2CCNS(=O)(=O)c2ccc(Br)cc2)c2[nH]c3ccccc3c2CCNS(=O)(=O)c2ccc(Br)cc2)cc1`: the IC50 was 2.7 µM on Aromatase [1] and over 50 µg/mL with Vero. Also, the selectivity ratio in the data set on aromatase [2] is over 20.8.
Turning to `N#Cc1ccc(C(c2[nH]c3ccccc3c2CCNS(=O)(=O)c2ccc(C(F)(F)F)cc2)c2[nH]c3ccccc3c2CCNS(=O)(=O)c2ccc(C(F)(F)F)cc2)cc1`, the figures for the IC50 at Aromatase [1] and with Vero were 15.3 µM and over 50 µg/mL, respectively. The selectivity ratio with aromatase [2] was over 3.85.
Consider `O=[N+]([O-])c1cccc(S(=O)(=O)NCCc2c(C(c3ccccc3O)c3[nH]c4ccccc4c3CCNS(=O)(=O)c3cccc([N+](=O)[O-])c3)[nH]c3ccccc23)c1`, for which the results for the half-inhibitory concentration (IC50) at Aromatase [1] and with Vero were 1.7 µM and over 50 µg/mL, respectively. Further, the selectivity ratio with aromatase [2] was over 37.
In turn, `Cc1c2ccncc2c(C)c2c1[nH]c1ccccc12` [ELLIPTECINE] gave an IC50 in the data set with Vero of 1.94 µM.

For the origin of these results see ChEMBL document CHEMBL4138181, “Synthesis, molecular docking, and QSAR study of sulfonamide-based indoles as aromatase inhibitors” (Eur J Med Chem, 2018).
